Converted amounts (≈) assume the structure as drawn. Where only a bound is given, the exact number is not on record here.

MIC data for 11 compounds are collected here from ChEMBL document CHEMBL3046517, “Synthesis and antimicrobial study of fluoroquinolone-based 4-thiazolidinones” (2010).

What all share (type): functional
Experiment [1] relates to Aspergillus clavatus. Kind of experiment: Antifungal activity against Aspergillus clavatus by broth dilution method.
Experiment [2] concerns Streptococcus pyogenes. The experiment can be described thus: Antibacterial activity against Streptococcus pyogenes by broth dilution method.
For experiment [3], the system named is Staphylococcus aureus. The experiment can be described thus: Antibacterial activity against Staphylococcus aureus by broth dilution method.
Experiment [4] relates to Pseudomonas aeruginosa. Kind of experiment: Antibacterial activity against Pseudomonas aeruginosa by broth dilution method.
In experiment [5] the test system is Candida albicans. The experiment can be described thus: Antifungal activity against Candida albicans by broth dilution method.
The test system of experiment [6] is Aspergillus niger. Kind of experiment: Antifungal activity against Aspergillus niger by broth dilution method.
Experiment [7] relates to Escherichia coli. Kind of experiment: Antibacterial activity against Escherichia coli by broth dilution method.

Turning to `COc1ccc(N2CCN(c3cc4c(cc3F)c(=O)c(C(=O)NN3C(=O)CSC3c3ccccc3)cn4C3CC3)CC2)cc1` (configuration not stated), the minimum inhibitory concentration (MIC) in experiment [1] is 500 µg/mL (≈ 815 µM); in experiment [2], 1000 µg/mL (≈ 1630 µM); in experiment [3], 500 µg/mL (≈ 815 µM); in experiment [4] it was 200 µg/mL (≈ 326 µM); in experiment [5] it was 1000 µg/mL (≈ 1630 µM); in experiment [6] it was 500 µg/mL (≈ 815 µM). This compound came in with an MIC in experiment [7] of 1000 µg/mL (≈ 1630 µM).

Take `O=C(N/N=C\c1ccc(O)cc1)c1cn(C2CC2)c2cc(Cl)c(F)cc2c1=O`: the MIC in experiment [1], in experiment [2], in experiment [3], in experiment [4], in experiment [5] and in experiment [6] was 500 µg/mL (≈ 1250 µM) throughout. For the same compound, in experiment [7], the MIC came out at 500 µg/mL (≈ 1250 µM).

With `COc1ccc(N2CCN(c3cc4c(cc3F)c(=O)c(C(=O)N/N=C\c3ccccc3Cl)cn4C3CC3)CC2)cc1`, the minimum inhibitory concentration (MIC) in experiment [1] is more than 1000 µg/mL; in experiment [2] it was 100 µg/mL (≈ 174 µM); in experiment [3], 500 µg/mL (≈ 871 µM); in experiment [4], 100 µg/mL (≈ 174 µM); in experiment [5], 500 µg/mL (≈ 871 µM); in experiment [6] it was more than 1000 µg/mL. In addition, the MIC in experiment [7] was 100 µg/mL (≈ 174 µM).

For the compound `COc1ccc(C2SCC(=O)N2NC(=O)c2cn(C3CC3)c3cc(N4CCN(c5ccc(OC)cc5)CC4)c(F)cc3c2=O)cc1` (configuration not stated), the MIC in experiment [1] is more than 1000 µg/mL; in experiment [2] it was 1000 µg/mL (≈ 1550 µM); in experiment [3], 1000 µg/mL (≈ 1550 µM); in experiment [4] it was 500 µg/mL (≈ 777 µM); in experiment [5], 500 µg/mL (≈ 777 µM); in experiment [6], 500 µg/mL (≈ 777 µM). This compound also registered an MIC in experiment [7] of 500 µg/mL (≈ 777 µM).

As for `COc1ccc(N2CCN(c3cc4c(cc3F)c(=O)c(C(=O)N/N=C\c3ccccc3O)cn4C3CC3)CC2)cc1`, the MIC is more than 1000 µg/mL in experiment [1]; 500 µg/mL (≈ 900 µM) in experiment [2]; 500 µg/mL (≈ 900 µM) in experiment [3]; 500 µg/mL (≈ 900 µM) in experiment [4]; 500 µg/mL (≈ 900 µM) in experiment [5]; 500 µg/mL (≈ 900 µM) in experiment [6]. The compound also gave an MIC in experiment [7] of 500 µg/mL (≈ 900 µM).

For `O=C(N/N=C\c1ccccc1O)c1cn(C2CC2)c2cc(Cl)c(F)cc2c1=O`, the MIC in experiment [1] came out at 500 µg/mL (≈ 1250 µM); in experiment [2], 1000 µg/mL (≈ 2500 µM); in experiment [3] it was 500 µg/mL (≈ 1250 µM); in experiment [4], 500 µg/mL (≈ 1250 µM); in experiment [5], 500 µg/mL (≈ 1250 µM); in experiment [6], 500 µg/mL (≈ 1250 µM). The compound also displayed an MIC in experiment [7] of 500 µg/mL (≈ 1250 µM).

For `O=C(O)c1cn(C2CC2)c2cc(Cl)c(F)cc2c1=O`, the MIC in experiment [1] came to 1000 µg/mL (≈ 3550 µM); in experiment [2], 100 µg/mL (≈ 355 µM); in experiment [3], 100 µg/mL (≈ 355 µM); in experiment [4] it was 100 µg/mL (≈ 355 µM); in experiment [5], 500 µg/mL (≈ 1780 µM); in experiment [6], 1000 µg/mL (≈ 3550 µM). For the same compound, 100 µg/mL (≈ 355 µM) was the least that counted as inhibitory in experiment [7] (MIC).

For `COc1ccc(N2CCN(c3cc4c(cc3F)c(=O)c(C(=O)N/N=C\c3cccc([N+](=O)[O-])c3)cn4C3CC3)CC2)cc1`, the MIC in experiment [1] came to 1000 µg/mL (≈ 1710 µM); in experiment [2] it was 500 µg/mL (≈ 855 µM); in experiment [3], 1000 µg/mL (≈ 1710 µM); in experiment [4] it was 500 µg/mL (≈ 855 µM); in experiment [5], 1000 µg/mL (≈ 1710 µM); in experiment [6], 1000 µg/mL (≈ 1710 µM). This compound also showed an MIC in experiment [7] of 1000 µg/mL (≈ 1710 µM).

For `O=C(N/N=C\c1cccc([N+](=O)[O-])c1)c1cn(C2CC2)c2cc(Cl)c(F)cc2c1=O`, the MIC in experiment [1] was more than 1000 µg/mL; in experiment [2], 1000 µg/mL (≈ 2330 µM); in experiment [3], 1000 µg/mL (≈ 2330 µM); in experiment [4], 200 µg/mL (≈ 466 µM); in experiment [5], 1000 µg/mL (≈ 2330 µM); in experiment [6], 1000 µg/mL (≈ 2330 µM). This compound also had an MIC in experiment [7] of 200 µg/mL (≈ 466 µM).

On to `COc1ccc(N2CCN(c3cc4c(cc3F)c(=O)c(C(=O)N/N=C\c3ccc(O)cc3)cn4C3CC3)CC2)cc1`, for which the MIC in experiment [1] amounted to 1000 µg/mL (≈ 1800 µM); in experiment [2], 1000 µg/mL (≈ 1800 µM); in experiment [3], 500 µg/mL (≈ 900 µM); in experiment [4] it was 200 µg/mL (≈ 360 µM); in experiment [5], 1000 µg/mL (≈ 1800 µM); in experiment [6] it was 1000 µg/mL (≈ 1800 µM). In addition, 500 µg/mL (≈ 900 µM) was the least that counted as inhibitory in experiment [7] (MIC).

Turning to `COc1ccc(N2CCN(c3cc4c(cc3F)c(=O)c(C(=O)NN3C(=O)CSC3c3ccc(Cl)cc3)cn4C3CC3)CC2)cc1` (configuration not stated), the MIC in experiment [1] was more than 1000 µg/mL; in experiment [2], 1000 µg/mL (≈ 1540 µM); in experiment [3], 100 µg/mL (≈ 154 µM); in experiment [4], 500 µg/mL (≈ 771 µM); in experiment [5], 1000 µg/mL (≈ 1540 µM); in experiment [6] it was 500 µg/mL (≈ 771 µM). Besides, the MIC in experiment [7] came out at 500 µg/mL (≈ 771 µM).
